Data published in PubChem BioAssay AID1963866 (Molecular Pharmacology Branch, DTP, NCI, 2024).

Tested on: PDC KRAS tumor spheroids with HUVEC/MSC, viability
Assay: Anticancer human tumor 349418-098-R-PDC patient-derived lung adenocarcinoma cell line growth inhibition [KRAS2]
Conditions: for IC50: curve of first compound; for viability, T/C: stronger effect = lower value
How it was run: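 Combination screen of spheroid viability in tumor-cell co-cultures with endothelial (HUVEC) and mesenchymal stem cell stroma. Each agent was tested in half-log dilutions, topping at clinical Cmax or at 10 microM without a known Cmax.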

[1] = second compound 0.1 µM, first compound 0.0316 µM
[2] = second compound 0.1 µM, first compound 0.1 µM
[3] = second compound 0.1 µM, first compound 0.316 µM
[4] = second compound 0.1 µM, first compound 1 µM
[5] = second compound 0.1 µM, first compound 3.16 µM
[6] = second compound 0.316 µM, first compound 0.0316 µM
[7] = second compound 0.316 µM, first compound 0.1 µM
[8] = second compound 0.316 µM, first compound 0.316 µM
[9] = second compound 0.316 µM, first compound 1 µM
[10] = second compound 0.316 µM, first compound 3.16 µM
[11] = second compound 1 µM, first compound 0.0316 µM
[12] = second compound 1 µM, first compound 0.1 µM
[13] = second compound 1 µM, first compound 0.316 µM
[14] = second compound 1 µM, first compound 1 µM
[15] = second compound 1 µM, first compound 3.16 µM
[16] = second compound 3.16 µM, first compound 0.0316 µM
[17] = second compound 3.16 µM, first compound 0.1 µM
[18] = second compound 3.16 µM, first compound 0.316 µM
[19] = second compound 3.16 µM, first compound 1 µM
[20] = second compound 3.16 µM, first compound 3.16 µM
[21] = second compound 0.1 µM, first compound 0.01 µM
[22] = second compound 0.316 µM, first compound 0.01 µM
[23] = second compound 1 µM, first compound 0.01 µM
[24] = second compound 3.16 µM, first compound 0.01 µM
[25] = second compound 10 µM, first compound 0.01 µM
[26] = second compound 10 µM, first compound 0.0316 µM
[27] = second compound 10 µM, first compound 0.1 µM
[28] = second compound 10 µM, first compound 0.316 µM
[29] = second compound 10 µM, first compound 1 µM
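Further: spheroids exposed to compounds for seven days before readout.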

Row | SMILES | IC50 (second compound 0.1 µM) [nM] | IC50 (second compound 0.316 µM) [nM] | IC50 (second compound 1 µM) [nM] | IC50 (second compound 3.16 µM) [nM] | viability, T/C [1] [%] | viability, T/C [2] [%] | viability, T/C [3] [%] | viability, T/C [4] [%] | viability, T/C [6] [%] | viability, T/C [7] [%] | viability, T/C [8] [%] | viability, T/C [9] [%] | viability, T/C [11] [%] | viability, T/C [12] [%] | viability, T/C [13] [%] | viability, T/C [14] [%] | viability, T/C [16] [%] | viability, T/C [17] [%] | viability, T/C [18] [%] | viability, T/C [19] [%] | other results
1 | COC(=O)c1ccc2c(C(=Nc3ccc(N(C)C(=O)CN4CCN(C)CC4)cc3)c3ccccc3)c(O)[nH]c2c1 + C=CC(=O)N1CCN(c2nc(OCC3CCCN3C)nc3c2CCN(c2cccc4cccc(C)c24)C3)CC1CC#N | 320 | 154 | < 31.6 | < 31.6 | 88.9 | 87.6 | 46.3 | 25.4 | 75.2 | 51 | 42.3 | 30.4 | 44.8 | 24.2 | 27.8 | 23.8 | 0.1 | 0.08 | 0.07 | 0.05 | IC50 (second compound 0.0316 µM): 456 nM; viability, T/C (second compound 0.0316 µM, first compound 0.0316 µM): 65.9%; viability, T/C (second compound 0.0316 µM, first compound 0.1 µM): 78.3%; viability, T/C (second compound 0.0316 µM, first compound 0.316 µM): 58.5%; viability, T/C (second compound 0.0316 µM, first compound 1 µM): 28.9%; viability, T/C (second compound 0.0316 µM, first compound 3.16 µM): 15.6%; viability, T/C (second compound 0.0316 µM, first compound 10 µM): 15%; viability, T/C [5]: 9.49%; viability, T/C (second compound 0.1 µM, first compound 10 µM): 9.82%; viability, T/C [10]: 10.6%; viability, T/C (second compound 0.316 µM, first compound 10 µM): 6.76%; viability, T/C [15]: 0.91%; viability, T/C (second compound 1 µM, first compound 10 µM): 0.96%; viability, T/C [20]: 0.03%; viability, T/C (second compound 3.16 µM, first compound 10 µM): 0.05%
2 | CCN1CCN(Cc2ccc(Nc3ncc(F)c(-c4cc(F)c5nc(C)n(C(C)C)c5c4)n3)nc2)CC1 + CC1OCC2(CCN(c3cnc(Sc4ccnc(N)c4Cl)c(N)n3)CC2)C1N | 5.38 | 3.38 | 7.27 | 7.9 | 21.4 | 14.6 | 13.6 | 4.93 | 18.1 | 23.4 | 10.2 | 6.35 | 21.1 | 16.4 | 10.7 | 3.95 | 23.7 | 18.1 | 10.1 | 3.58 | IC50 (second compound 10 µM): 6.16 nM; viability, T/C (second compound 0.1 µM, first compound 0.00316 µM): 66.4%; viability, T/C [21]: 28.3%; viability, T/C (second compound 0.316 µM, first compound 0.00316 µM): 50.9%; viability, T/C [22]: 37.3%; viability, T/C (second compound 1 µM, first compound 0.00316 µM): 70.2%; viability, T/C [23]: 43.6%; viability, T/C (second compound 3.16 µM, first compound 0.00316 µM): 61.6%; viability, T/C [24]: 49.8%; viability, T/C (second compound 10 µM, first compound 0.00316 µM): 68.6%; viability, T/C [25]: 36.7%; viability, T/C [26]: 18.2%; viability, T/C [27]: 15.1%; viability, T/C [28]: 9.7%; viability, T/C [29]: 3.29%
3 | CC1COCCN1c1cc(-c2ccnn2C)c2ccnc(-c3ccn[nH]3)c2n1 (stereo not given) + COc1cc2nc(C)nc(NC(C)c3cc(N)cc(C(F)(F)F)c3)c2cc1OC1CCOC1 | < 10 | 43.8 | 48.5 | 42.7 | 8.3 | 5.7 | 5.49 | 6 | 65.5 | 10.9 | 6.49 | 5.47 | 71.2 | 13.9 | 11.7 | 7.84 | 63.1 | 12.8 | 7.88 | 6.55 | IC50 (second compound 10 µM): < 10 nM; viability, T/C [21]: 5.36%; viability, T/C [5]: 5.72%; viability, T/C [22]: 170%; viability, T/C [10]: 7.16%; viability, T/C [23]: 167%; viability, T/C [15]: 7.72%; viability, T/C [24]: 146%; viability, T/C [20]: 9.36%; viability, T/C [25]: 36.6%; viability, T/C [26]: 14.1%; viability, T/C [27]: 8.5%; viability, T/C [28]: 6.86%; viability, T/C [29]: 7.4%; viability, T/C (second compound 10 µM, first compound 3.16 µM): 5.53%
